From patent publication EP4759812A1 (Guangzhou Lupeng Pharmaceutical Co., Ltd., priority 2023, dated 2025)

Assays:
Format in all cases: physicochemical
[1] = Influencing factor stability: high-temperature test; conditions: Temperature 60°C; for Purity: HPLC, starting purity: Crystal form VI 99.32%, Amorphous form 98.80%, Crystal form XIII 99.01%; for Crystal form: XRPD
Experimental: (§1) The crystal form results under different conditions were identified by XRPD analysis, and the purity results under different conditions were identified by HPLC analysis.
(§2) The above samples were then taken on days 5, 10, 15, and 30, respectively. Their crystal forms were tested by adopting X-ray powder diffraction (XRPD), and the sample purities were tested by adopting HPLC. […]

[2] = Dynamic vapor sorption (DVS) experiment; conditions: for Adsorption weight gain (80% RH) / Adsorption weight gain (95% RH): DVS; for Hygroscopicity: class per Chinese Pharmacopoeia 2010 guidance (25±0.2°C, 80% relative humidity)
[3] = Stability test in pure water and buffer solution (suspension, XRPD); conditions: 25°C, stirred 24 h, solid by XRPD
Experimental: The suspensions were stirred at 25°C for 24 h, and filtered to obtain the solids. Samples were taken for XRPD measurement. […]

[4] = Influencing factor stability: high-humidity test; conditions: Temperature 25°C, relative humidity 92.5±5%; for Purity: HPLC, starting purity: Crystal form VI 99.32%, Amorphous form 98.80%, Crystal form XIII 99.01%; for Crystal form: XRPD
Experimental: as §1, §2

[5] = Influencing factor stability: light exposure test; conditions: Visible light 4500 Lux ± 500 Lux; for Crystal form: ultraviolet light 1.7 W*h/m^2 (25°C, RH 60%±5%), XRPD; for Purity: HPLC, starting purity: Crystal form VI 99.32%, Amorphous form 98.80%, Crystal form XIII 99.01%
Experimental: as §1, §2

[6] = Morphological comparison under polarizing light microscope; conditions: for dispersibility and flowability / agglomeration and caking: judged from polarizing light microscope images; for crystal morphology: polarizing light microscope
[7] = ultraviolet light 1.7 W*h/m^2, 5 days
[8] = ultraviolet light 1.7 W*h/m^2, 10 days
[9] = ultraviolet light 1.7 W*h/m^2, 15 days
[10] = ultraviolet light 1.7 W*h/m^2, 30 days

Row | Purity ([1]; 5 days) [%] | Crystal form ([1]; 5 days) | Purity ([1]; 10 days) [%] | Crystal form ([1]; 10 days) | Purity ([1]; 15 days) [%] | Crystal form ([1]; 15 days) | Purity ([1]; 30 days) [%] | Crystal form ([1]; 30 days) | Adsorption weight gain (80% RH) [2] [%] | Adsorption weight gain (95% RH) [2] [%] | Suspension result ([3]; Pure water) | Suspension result ([3]; pH 4.5 buffer solution) | Suspension result ([3]; pH 6.8 buffer solution) | Purity ([4]; 5 days) [%] | Crystal form ([4]; 5 days) | Purity ([4]; 10 days) [%] | Crystal form ([4]; 10 days) | Purity ([4]; 15 days) [%] | Crystal form ([4]; 15 days) | SMILES | Hygroscopicity [2] | other results
1 | 98.61 | Amorphous form | 98.44 | Amorphous form | 98.39 | Amorphous form | 97.88 | Amorphous form | 4.55 | 6.76 | Transform into other crystal forms | Transform into other crystal forms | Transform into other crystal forms | 98.72 | Amorphous form | 98.50 | Amorphous form | 98.38 | Amorphous form | C=CC(=O)Nc1cc(Nc2nc(-c3ccnc(N4CCn5c(cc6c5CC(C)(C)C6)C4=O)c3CO)cn(C)c2=O)ccc1N1CCN(C2CCOCC2)C[C@@H]1C [Amorphous form, (S)-N-(5-((6-(2-(7,7-dimethyl-1-oxo-1,3,4,6,7,8-hexahydro-2H-cyclopenta[4,5]pyrrolo[1,2-a]pyrazin-2-yl)-3-(hydroxymethyl)pyridin-4-yl)-4-methyl-3-oxo-3,4-dihydropyrazin-2-yl)amino)-2-(2-methyl-4-(tetrahydro-2H-pyran-4-yl)piperazin-1-yl)phenyl)acrylamide] | Hygroscopic (hygroscopic weight gain is less than 15% but not less than 2%) | Adsorption weight gain (80% RH) ([2]; listed as amorphous form): about 4.55%; Adsorption weight gain (95% RH) ([2]; listed as amorphous form): about 6.76%; Hygroscopicity ([2]; listed as amorphous form): hygroscopic; Purity ([4]; 30 days): 98.21%; Crystal form ([4]; 30 days): Amorphous form; Crystal form ([5]; 5 days): Amorphous form; Crystal form ([5]; 10 days): Amorphous form; Crystal form ([5]; 15 days): Amorphous form; Crystal form ([5]; 30 days): Amorphous form; Purity [5, 7]: 98.46%; Purity [5, 8]: 97.98%; Purity [5, 9]: 97.29%; Purity [5, 10]: 96.55%; dispersibility and flowability / agglomeration and caking [6]: significant agglomeration and caking; crystal morphology [6]: irregular glassy state
2 |  |  |  |  |  |  |  |  |  |  |  | Transform into other crystal forms | Transform into other crystal forms |  |  |  |  |  |  | C=CC(=O)Nc1cc(Nc2nc(-c3ccnc(N4CCn5c(cc6c5CC(C)(C)C6)C4=O)c3CO)cn(C)c2=O)ccc1N1CCN(C2CCOCC2)C[C@@H]1C [Crystal form V, (S)-N-(5-((6-(2-(7,7-dimethyl-1-oxo-1,3,4,6,7,8-hexahydro-2H-cyclopenta[4,5]pyrrolo[1,2-a]pyrazin-2-yl)-3-(hydroxymethyl)pyridin-4-yl)-4-methyl-3-oxo-3,4-dihydropyrazin-2-yl)amino)-2-(2-methyl-4-(tetrahydro-2H-pyran-4-yl)piperazin-1-yl)phenyl)acrylamide] |  | 
3 | 98.79 | Transform into other crystal forms | 98.54 | Transform into other crystal forms | 98.20 | Transform into other crystal forms | 97.85 | Transform into other crystal forms | 6.53 | 14.45 | Transform into other crystal forms | Transform into other crystal forms | Transform into other crystal forms | 98.92 | Crystal form XIII | 98.86 | Crystal form XIII | 98.81 | Crystal form XIII | C=CC(=O)Nc1cc(Nc2nc(-c3ccnc(N4CCn5c(cc6c5CC(C)(C)C6)C4=O)c3CO)cn(C)c2=O)ccc1N1CCN(C2CCOCC2)C[C@@H]1C [Crystal form XIII, (S)-N-(5-((6-(2-(7,7-dimethyl-1-oxo-1,3,4,6,7,8-hexahydro-2H-cyclopenta[4,5]pyrrolo[1,2-a]pyrazin-2-yl)-3-(hydroxymethyl)pyridin-4-yl)-4-methyl-3-oxo-3,4-dihydropyrazin-2-yl)amino)-2-(2-methyl-4-(tetrahydro-2H-pyran-4-yl)piperazin-1-yl)phenyl)acrylamide] | Hygroscopic (hygroscopic weight gain is less than 15% but not less than 2%) | Adsorption weight gain (80% RH) ([2]; listed as crystal form XIII): about 6.53%; Adsorption weight gain (95% RH) ([2]; listed as crystal form XIII): about 14.45%; Hygroscopicity ([2]; listed as crystal form XIII): hygroscopic; Purity ([4]; 30 days): 98.77%; Crystal form ([4]; 30 days): Crystal form XIII; Crystal form ([5]; 5 days): Crystal form XIII; Crystal form ([5]; 10 days): Crystal form XIII; Crystal form ([5]; 15 days): Crystal form XIII; Crystal form ([5]; 30 days): Crystal form XIII; Purity [5, 7]: 98.65%; Purity [5, 8]: 98.32%; Purity [5, 9]: 97.76%; Purity [5, 10]: 97.15%; dispersibility and flowability / agglomeration and caking [6]: relatively poor flowability; crystal morphology [6]: fine
